Assay results reported in US11851391B2, “Antifungal compounds and methods of forming the same” (University of Kentucky Research Foundation, priority 2018, dated 2023).
Converted amounts (≈) assume the structure as drawn. “Also recorded” adds a separate entry of the source. Where two headings read alike, the source gives them in different places.

Legend:
[1] = Solubility of the compounds; type: physicochemical
[2] = system: Candida albicans ATCC 10231(R) (strain A); test: MIC determination, in vitro antifungal assay (CLSI M27-A3); type: cell-based; conditions: MIC-0 (no visible growth), 48 h at 35° C.
Experimental: (§1) The activity of N,N′-diaryl-bishydrazones 7-22 was tested against a panel of seven strains of C. albicans: ATCC 10231(R) (A), ATCC 64124(R) (B), ATCC MYA-2876(S) (C), ATCC 90819(R) (D), ATCC MYA-2310(S) (E), ATCC MYA-1237(R) (F), and ATCC MYA-1003(R) (G). The activity of these bishydrazones 7-22 was also explored against a panel of three non-albicans Candida strains: C. glabrata ATCC 2001 (H), C. krusei ATCC 6258 (I), and C. parapsilosis ATCC 22019 (J). Finally, the activity of these bishydrazones 7-22 was explored against three Aspergillus strains: A. flavus ATCC MYA-3631 (K), A. nidulans ATCC 38163 (L), and A. terreus ATCC MYA-3633 (M).
(§2) Candida albicans ATCC 10231 (A), C. albicans ATCC 64124 (B), and C. albicans ATCC MYA-2876 (C) were kindly provided by Dr. Jon Y. Takemoto (Utah State University, Logan, UT, USA). C. albicans ATCC 90819 (D), C. albicans ATCC MYA-2310 (E), C. albicans ATCC MYA-1237 (F), C. albicans ATCC MYA-1003 (G), Candida glabrata ATCC 2001 (H), Candida krusei ATCC 6258 (I), Candida parapsilosis ATCC 22019 (J), Aspergillus flavus ATCC MYA-3631 (K), and Aspergillus terreus ATCC MYA-3633 (M) were obtained from the American Type Culture Collection (ATCC; Manassas, VA, USA). Aspergillus nidulans ATCC 38163 (L) was received from Dr. Jon S. Thorson (University of Kentucky, Lexington, KY, USA). Filamentous fungi and yeasts were cultivated at 35° C. in RPMI 1640 medium (with 1-glutamine, without sodium biocarbonate, Sigma-Aldrich, St. Louis, MO) buffered to a pH of 7.0 with 0.165 M morpholinepropanesulfonic acid (MOPS) buffer (Sigma-Aldrich).
(§3) The MIC values of compounds 7a-24c against yeast cells (strains A-J) were determined in 96-well plates as described in the CLSI document M27-A3 with minor modifications. A single colony of freshly prepared yeast cells was used to inoculate 5 mL of yeast extract peptone dextrose (YPD) broth prior to incubation overnight with shaking at 200 rpm at 35° C. From the actively growing yeast culture, 100 μL were then transferred to 900 μL of sterile ddH2O and re-adjusted to achieve OD600 of 0.12 (˜1×10^6 CFU/mL). The cell suspension was further diluted to achieve 2-4×10^3 CFU/mL in RPMI 1640 medium. […] The final concentration of DMSO was ensured to be <1.25% in all experiments. The MIC values for compounds 7a-24c and CAS were defined as the minimum drug concentration that yielded complete inhibition (also known as MIC-0).

[3] = system: Candida parapsilosis ATCC 22019 (strain J); test: as above; type: cell-based; conditions: strain J, MIC-0, 48 h at 35° C.
Experimental: as §1, §2, §3

[4] = system: Aspergillus nidulans ATCC 38163 (strain L); test: MIC determination against filamentous fungi (CLSI M38-A2); type: cell-based; conditions: Aspergillus nidulans, ATCC38163, 48 h, MIC-0, 48 h at 35° C., read-out: MIC
Experimental: as §1, §2
(§4) Similarly, the MIC values of compounds 7a-24c, as well as that of the two control drugs against filamentous fungi (strains K-M) were determined as previously described in CLSI document M38-A2. Spores were harvested from sporulating cultures growing on potato dextrose agar (PDA) by filtration through sterile glass wool and enumerated by using a hemocytometer to obtain the desired inoculum size. […] Spore suspensions were added to the wells to afford a final concentration of 5×10^5 CFU/mL. The plates were incubated at 35° C. for 48 h. The MIC values of compounds 7a-24c and CAS against filamentous fungi were based on the complete inhibition of growth when compared to the growth control (MIC-0). […] Each test was performed in triplicate.

[5] = system: Aspergillus flavus ATCC MYA-3631 (strain K); test: as above; type: cell-based; conditions: Aspergillus flavus, 48 h, MIC-0, 48 h at 35° C., read-out: MIC
Experimental: as §1, §2, §4

[6] = system: Aspergillus terreus ATCC MYA-3633 (strain M); test: as above; type: cell-based; conditions: Aspergillus terreus, 48 h, MIC-0, 48 h at 35° C., read-out: MIC
Experimental: as §1, §2, §4

[7] = system: C. albicans ATCC MYA-2876(S) (strain C); test: MIC determination, in vitro antifungal assay (CLSI M27-A3); type: cell-based, Candida albicans; conditions: Candida albicans, 48 h, MIC-0, 48 h at 35° C., read-out: MIC
Experimental: as §1, §2
(§5) A single colony of freshly prepared yeast cells was used to inoculate 5 mL of yeast extract peptone dextrose (YPD) broth prior to incubation overnight with shaking at 200 rpm at 35° C. From the actively growing yeast culture, 100 μL were then transferred to 900 μL of sterile ddH2O and re-adjusted to achieve OD600 of 0.12 (˜1×10^6 CFU/mL). The cell suspension was further diluted to achieve 2-4×10^3 CFU/mL in RPMI 1640 medium. […] The final concentration of DMSO was ensured to be <1.25% in all experiments.

[8] = system: C. albicans ATCC MYA-1003(R) (strain G); test: as above; type: cell-based, Candida albicans; conditions: MIC-0, 48 h at 35° C.
Experimental: as §1, §2, §5

[9] = system: C. albicans ATCC 64124(R) (strain B); test: as above; type: cell-based, Candida albicans; conditions: strain B, MIC-0, 48 h at 35° C.
Experimental: as §1, §2, §3

[10] = system: C. albicans ATCC MYA-1237(R) (strain F); test: as above; type: cell-based, Candida albicans; conditions: Candida albicans, 48 h, MIC-0, 48 h at 35° C., read-out: MIC
Experimental: as §1, §2, §3

[11] = system: C. albicans ATCC 90819(R) (strain D); test: as above; type: cell-based, Candida albicans; conditions: Candida albicans, ATCC90819, 48 h, MIC-0, 48 h at 35° C., read-out: MIC
Experimental: as §1, §2, §3

[12] = system: C. albicans ATCC MYA-2310(S) (strain E); test: as above; type: cell-based, Candida albicans; conditions: Candida albicans, 48 h, MIC-0, 48 h at 35° C., read-out: MIC
Experimental: as §1, §2, §3

[13] = system: various yeast strains and filamentous fungi (strains A-M); test: Antifungal activity over the whole panel (summary of MIC data); type: cell-based, Candida and Aspergillus strains; conditions: for antifungal activity (in words): over the fungal strains tested, based on MIC data of Table 1; for MIC: against all fungal strains tested, with named exceptions, read-out: antifungal activity class based on MIC values
Experimental: as §1, §3, §4

[14] = system: Candida glabrata ATCC 2001 (strain H); test: MIC determination, in vitro antifungal assay (CLSI M27-A3); type: cell-based; conditions: Nakaseomyces glabratus, ATCC2001, 48 h, MIC-0, 48 h at 35° C., read-out: MIC
Experimental: as §1, §2, §5

[15] = system: Candida krusei ATCC 6258 (strain I); test: as above; type: cell-based; conditions: Pichia kudriavzevii, ATCC6258, 48 h, MIC-0, 48 h at 35° C., read-out: MIC
Experimental: as §1, §2, §5

[16] = Candida albicans, ATCC10231, 48 h, read-out: MIC
[17] = Lodderomyces parapsilosis, ATCC22019, 48 h, read-out: MIC
[18] = Candida albicans, 48 h, read-out: MIC
[19] = Candida albicans, ATCC64124, 48 h, read-out: MIC

Compound	solubility (in words) [1]	MIC [2, 16]	MIC [3, 17]	MIC [3]	MIC [4]	MIC [5]	MIC [6]	MIC [7]	MIC [8, 18]	MIC [8]	MIC [9, 19]	MIC [10]	MIC [11]	MIC [12]	antifungal activity (in words) [13]	MIC [14]	MIC [15]	MIC [2]	MIC [13]	MIC [9]
O=[N+]([O-])c1ccccc1N/N=C/c1ccc(-c2cccc(/C=N/Nc3ccccc3[N+](=O)[O-])c2)cc1 [Compound 8a]	limited solubility; also recorded: insoluble	–	–	–	–	–	–	–	–	–	–	–	–	–	–	–	–	–	–	–
O=[N+]([O-])c1ccccc1N/N=C/c1ccc(-c2ccc(/C=N/Nc3ccccc3[N+](=O)[O-])cc2)cc1 [Compound 8b]	limited solubility; also recorded: insoluble	–	–	–	–	–	–	–	–	–	–	–	–	–	–	–	–	–	–	–
COc1ccccc1N/N=C/c1ccc(-c2cccc(/C=N/Nc3ccccc3OC)c2)cc1 [Compound 9a]	limited solubility; also recorded: insoluble	–	–	–	–	–	–	–	–	–	–	–	–	–	–	–	–	–	–	–
COc1ccccc1N/N=C/c1ccc(-c2ccc(/C=N/Nc3ccccc3OC)cc2)cc1 [Compound 9b]	limited solubility; also recorded: insoluble	–	–	–	–	–	–	–	–	–	–	–	–	–	–	–	–	–	–	–
COc1cccc(N/N=C/c2ccc(-c3cccc(/C=N/Nc4cccc(OC)c4)c3)cc2)c1 [Compound 11a]	limited solubility; also recorded: insoluble	–	–	–	–	–	–	–	–	–	–	–	–	–	–	–	–	–	–	–
COc1cccc(N/N=C/c2ccc(-c3ccc(/C=N/Nc4cccc(OC)c4)cc3)cc2)c1 [Compound 11b]	limited solubility; also recorded: insoluble	–	–	–	–	–	–	–	–	–	–	–	–	–	–	–	–	–	–	–
FC(F)(F)c1ccc(N/N=C/c2ccc(-c3cccc(/C=N/Nc4ccc(C(F)(F)F)cc4)c3)cc2)cc1 [Compound 14a]	limited solubility; also recorded: insoluble	–	–	–	–	–	–	–	–	–	–	–	–	–	–	–	–	–	–	–
Clc1ccc(N/N=C/c2ccc(-c3cccc(/C=N/Nc4ccc(Cl)cc4)c3)cc2)cc1 [Compound 18a]	–	7.8 µg/mL (≈ 17 µM)	1.95 to 3.9 µg/mL (≈ 4.24 to 8.49 µM)	3.9 µg/mL (≈ 8.49 µM)	> 31.3 µg/mL	> 31.3 µg/mL	> 31.3 µg/mL	15.6 µg/mL (≈ 34 µM)	1.95 to 3.9 µg/mL (≈ 4.24 to 8.49 µM)	3.9 µg/mL (≈ 8.49 µM)	7.8 µg/mL (≈ 17 µM)	15.6 µg/mL (≈ 34 µM)	15.6 µg/mL (≈ 34 µM)	31.3 µg/mL (≈ 68.1 µM)	overall antifungal activity against all the strains tested; also recorded: good activity against the majority of the fungal strains tested; also recorded: excellent activity only against yeast strains	15.6 µg/mL (≈ 34 µM)	31.3 µg/mL (≈ 68.1 µM)	–	–	–
Clc1ccc(N/N=C/c2ccc(-c3ccc(/C=N/Nc4ccc(Cl)cc4)cc3)cc2)cc1 [Compound 18b]	–	> 31.3 µg/mL	31.3 µg/mL (≈ 68.1 µM)	–	> 31.3 µg/mL	> 31.3 µg/mL	31.3 µg/mL (≈ 68.1 µM)	> 31.3 µg/mL	> 31.3 µg/mL	–	> 31.3 µg/mL	> 31.3 µg/mL	> 31.3 µg/mL	> 31.3 µg/mL	inactive	> 31.3 µg/mL	31.3 µg/mL (≈ 68.1 µM)	–	–	–
Brc1ccc(N/N=C/c2ccc(-c3ccc(/C=N/Nc4ccc(Br)cc4)cc3)cc2)cc1 [Compound 19b]	–	> 31.3 µg/mL	31.3 µg/mL (≈ 57.1 µM)	–	> 31.3 µg/mL	> 31.3 µg/mL	> 31.3 µg/mL	> 31.3 µg/mL	> 31.3 µg/mL	–	> 31.3 µg/mL	> 31.3 µg/mL	> 31.3 µg/mL	> 31.3 µg/mL	inactive	> 31.3 µg/mL	> 31.3 µg/mL	–	–	–
Fc1ccc(N/N=C/c2ccc(-c3ccc(/C=N/Nc4ccc(F)cc4F)cc3)cc2)c(F)c1 [Compound 20b]	–	7.8 µg/mL (≈ 16.9 µM)	> 31.3 µg/mL	–	> 31.3 µg/mL	> 31.3 µg/mL	> 31.3 µg/mL	> 31.3 µg/mL	> 31.3 µg/mL	–	> 31.3 µg/mL	> 31.3 µg/mL	31.3 µg/mL (≈ 67.7 µM)	> 31.3 µg/mL	–	> 31.3 µg/mL	> 31.3 µg/mL	7.8 µg/mL (≈ 16.9 µM)	≥ 31.3 µg/mL	–
Fc1cc(F)cc(N/N=C/c2ccc(-c3cccc(/C=N/Nc4cc(F)cc(F)c4)c3)cc2)c1 [Compound 22a]	–	3.9 µg/mL (≈ 8.43 µM)	> 31.3 µg/mL	–	> 31.3 µg/mL	> 31.3 µg/mL	> 31.3 µg/mL	31.3 µg/mL (≈ 67.7 µM)	31.3 µg/mL (≈ 67.7 µM)	–	15.6 µg/mL (≈ 33.7 µM)	31.3 µg/mL (≈ 67.7 µM)	> 31.3 µg/mL	> 31.3 µg/mL	no activity	> 31.3 µg/mL	> 31.3 µg/mL	3.9 µg/mL (≈ 8.43 µM)	–	15.6 µg/mL (≈ 33.7 µM)
Fc1cc(F)cc(N/N=C/c2ccc(-c3ccc(/C=N/Nc4cc(F)cc(F)c4)cc3)cc2)c1 [Compound 22b]	–	15.6 µg/mL (≈ 33.7 µM)	> 31.3 µg/mL	–	> 31.3 µg/mL	> 31.3 µg/mL	> 31.3 µg/mL	> 31.3 µg/mL	> 31.3 µg/mL	–	> 31.3 µg/mL	> 31.3 µg/mL	> 31.3 µg/mL	> 31.3 µg/mL	no activity	> 31.3 µg/mL	> 31.3 µg/mL	15.6 µg/mL (≈ 33.7 µM)	≥ 31.3 µg/mL	–
